In ChEMBL document CHEMBL3734672, “Synthesis, cyclooxygenase inhibition, anti-inflammatory evaluation and ulcerogenic liability of novel triarylpyrazoline derivatives as selective COX-2 inhibitors” (Bioorg Med Chem Lett, 2015):

Experiments:
[1] = molecular target: T1, Prostaglandin G/H synthase 1 (Ovis aries, UniProt P05979); assay: Inhibition of ovine COX-1 preincubated for 2 mins prior to arachidonic acid addition by enzyme immuno assay
T1 sequence (P05979 whole entry): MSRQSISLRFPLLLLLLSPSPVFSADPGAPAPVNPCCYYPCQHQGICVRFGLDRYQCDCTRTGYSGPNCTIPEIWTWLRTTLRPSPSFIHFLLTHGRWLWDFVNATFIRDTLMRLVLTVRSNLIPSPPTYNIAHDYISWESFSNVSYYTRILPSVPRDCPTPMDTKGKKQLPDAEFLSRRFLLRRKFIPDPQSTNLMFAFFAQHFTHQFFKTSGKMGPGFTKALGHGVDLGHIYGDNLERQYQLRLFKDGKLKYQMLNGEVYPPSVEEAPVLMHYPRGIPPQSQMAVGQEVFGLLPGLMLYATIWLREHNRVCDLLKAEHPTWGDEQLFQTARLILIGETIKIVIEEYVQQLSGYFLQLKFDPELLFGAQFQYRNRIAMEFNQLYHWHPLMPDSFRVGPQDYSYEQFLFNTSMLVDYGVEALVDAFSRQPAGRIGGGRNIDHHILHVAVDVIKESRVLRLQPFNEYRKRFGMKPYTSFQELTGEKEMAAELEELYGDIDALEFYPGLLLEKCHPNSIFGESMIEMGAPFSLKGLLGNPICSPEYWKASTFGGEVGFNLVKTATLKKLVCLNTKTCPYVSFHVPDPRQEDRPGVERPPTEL

[2] = molecular target: T2, Prostaglandin G/H synthase 2 (Homo sapiens, UniProt P35354); assay: Inhibition of human recombinant COX-2 preincubated for 2 mins prior to arachidonic acid addition by enzyme immuno assay
T2 sequence (P35354 whole entry): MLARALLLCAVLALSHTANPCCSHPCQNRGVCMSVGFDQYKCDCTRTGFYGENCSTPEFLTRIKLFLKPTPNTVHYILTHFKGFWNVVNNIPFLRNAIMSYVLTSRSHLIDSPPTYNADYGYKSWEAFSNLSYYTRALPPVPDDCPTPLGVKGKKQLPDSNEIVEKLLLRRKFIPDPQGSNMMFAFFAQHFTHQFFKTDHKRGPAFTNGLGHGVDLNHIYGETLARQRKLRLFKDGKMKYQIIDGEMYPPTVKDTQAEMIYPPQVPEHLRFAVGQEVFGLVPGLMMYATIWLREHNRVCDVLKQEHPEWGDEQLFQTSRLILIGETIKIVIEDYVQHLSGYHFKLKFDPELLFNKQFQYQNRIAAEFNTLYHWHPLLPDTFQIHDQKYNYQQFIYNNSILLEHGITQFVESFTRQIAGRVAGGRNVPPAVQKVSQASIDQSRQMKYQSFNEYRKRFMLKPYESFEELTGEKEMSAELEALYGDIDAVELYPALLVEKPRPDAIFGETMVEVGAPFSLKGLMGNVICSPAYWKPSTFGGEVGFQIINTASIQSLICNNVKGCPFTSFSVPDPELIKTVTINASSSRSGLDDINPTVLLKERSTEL

[3] = Selectivity index, ratio of IC50 for ovine COX-1 to IC50 for human recombinant COX-2
Rattus norvegicus [4] = assay: Antiinflammatory activity in rat assessed as inhibition of carrageenan-induced paw edema at 50 mg/kg, po measured after 3hrs post carrageenan challenge; format: functional
Rattus norvegicus [5] = assay: Ulcerogenic activity in rat assessed as ulcer index at 100 mg/kg; format: toxicity, organism-based; conditions: in vivo
Rattus norvegicus [6] = assay: Gastrointestinal toxicity in rat assessed as ulcer incidence at 100 mg/kg; format: organism-based; conditions: in vivo

| IC50 [1] [µM] | IC50 [2] [µM] | Ratio IC50 [3] | SMILES | inhibition in vivo at 50 mg/kg (Rattus norvegicus [4]) [%] | UI (Rattus norvegicus [5]) | Activity (Rattus norvegicus [6]) [%] |
| --- | --- | --- | --- | --- | --- | --- |
| 6.6 | 2.17 | 3.11 | COc1ccc(C2CC(c3ccc(S(C)(=O)=O)cc3)=NN2c2ccc(C(=O)O)cc2)cc1 (stereo not given) | 55.4 | – | – |
| 6.4 | 1.75 | 3.71 | CS(=O)(=O)c1ccc(C2=NN(c3ccc(S(N)(=O)=O)cc3)C(c3cccs3)C2)cc1 (stereo not given) | 36.4 | – | – |
| 4.9 | 0.98 | 5 | CS(=O)(=O)c1ccc(C2=NN(c3ccc(C(=O)O)cc3)C(c3ccccc3)C2)cc1 (stereo not given) | 56.4 | – | – |
| 9.7 | 3.41 | 2.91 | CS(=O)(=O)c1ccc(C2=NN(c3ccc(S(N)(=O)=O)cc3)C(c3ccc(F)cc3)C2)cc1 (stereo not given) | 65.7 | 7.7 | 6 |
| 10.1 | 4.71 | 2.21 | COc1cccc(C2CC(c3ccc(S(C)(=O)=O)cc3)=NN2c2ccc(C(=O)O)cc2)c1 (stereo not given) | 31.3 | – | – |
| 4.7 | 1.16 | 4.11 | CS(=O)(=O)c1ccc(C2=NN(c3ccc(C(=O)O)cc3)C(c3cccs3)C2)cc1 (stereo not given) | 35.6 | – | – |
| 11.4 | 3.98 | 2.91 | CS(=O)(=O)c1ccc(C2=NN(c3ccc(C(=O)O)cc3)C(c3ccc(Cl)cc3)C2)cc1 (stereo not given) | 50.4 | – | – |
| – | – | – | Cc1ccc(-c2cc(C(F)(F)F)nn2-c2ccc(S(N)(=O)=O)cc2)cc1 [CELECOXIB] | 65.3 | 4.85 | 4.2 |
| 8.7 | 1.98 | 4.41 | COc1ccc(C2CC(c3ccc(S(C)(=O)=O)cc3)=NN2c2ccc(S(N)(=O)=O)cc2)cc1OC (stereo not given) | 45.5 | – | – |
| 9.7 | 3.74 | 2.61 | COc1ccc(C2CC(c3ccc(S(C)(=O)=O)cc3)=NN2c2ccc(C(=O)O)cc2)cc1OC (stereo not given) | 6.11 | – | – |
| – | – | – | COc1ccc2c(c1)c(CC(=O)O)c(C)n2C(=O)c1ccc(Cl)cc1 [INDOMETHACIN] | – | 12.3 | 8.3 |
| 12.3 | 4.67 | 2.63 | COc1cc(C2CC(c3ccc(S(C)(=O)=O)cc3)=NN2c2ccc(S(N)(=O)=O)cc2)cc(OC)c1OC (stereo not given) | 73.7 | 5.92 | 5 |
| 7.1 | 1.76 | 4.11 | COc1cccc(C2CC(c3ccc(S(C)(=O)=O)cc3)=NN2c2ccc(S(N)(=O)=O)cc2)c1 (stereo not given) | 38.3 | – | – |
| 5.4 | 1.62 | 3.33 | CS(=O)(=O)c1ccc(C2=NN(c3ccc(S(N)(=O)=O)cc3)C(c3ccccc3)C2)cc1 (stereo not given) | 54.3 | – | – |
| 9.7 | 2.84 | 3.42 | CS(=O)(=O)c1ccc(C2=NN(c3ccc(C(=O)O)cc3)C(c3ccc(F)cc3)C2)cc1 (stereo not given) | 42.3 | – | – |
| 6.5 | 2.11 | 3.1 | COc1ccc(C2CC(c3ccc(S(C)(=O)=O)cc3)=NN2c2ccc(S(N)(=O)=O)cc2)cc1 (stereo not given) | 42.4 | – | – |
| 8.3 | 2.67 | 3.11 | CS(=O)(=O)c1ccc(C2=NN(c3ccc(S(N)(=O)=O)cc3)C(c3ccc(Cl)cc3)C2)cc1 (stereo not given) | 42.4 | – | – |
| 13.4 | 5.94 | 2.51 | COc1cc(C2CC(c3ccc(S(C)(=O)=O)cc3)=NN2c2ccc(C(=O)O)cc2)cc(OC)c1OC (stereo not given) | 66.2 | 6.85 | 5.5 |
